# Test results as given in US20260207708A1, “THERAPEUTIC USES OF ADIPOSE-SECRETED SIGNALING PROTEIN (ADISSP)” (UNIVERSITY OF MASSACHUSETTS, priority 2023, published 2026).
# Like-named read-outs stand apart in the source and are kept apart here.
# How the values were obtained:
# [1] = system: Akt; assay: Akt activation in serum-starved brown adipocytes; type: cell-based; settings: for blocking of Akt activation by ADISSP: adipocytes pre-treated with inhibitor 2 hr: S961 0.5 μM, Melittin 1 μM, Gallein 5 μM, wortmannin 1 μM, LDC1267 1 μM, then ADISSP 300 nM 30 min
# Procedure: (§1) In some cases adipocytes were pre-treated with inhibitors for 2 hr: S961 (0.5 μM), Melittin (1 μM), Gallein (5 μM), wortmannin (1 μM), and LDC1267 (1 μM).
# [2] = system: STZ-induced type 1 diabetic mice; assay: High-dose streptozotocin (STZ)-induced type 1 diabetic mice; type: in vivo, C57BL6 mice; settings: STZ 200 mg/kg single dose, ADISSP 50 nmole/kg ip at 0 hr and 24 h
# Procedure: (§2) The effects of ADISSP protein administration on blood glucose and polyuria were evaluated in streptozotocin (STZ)-induced type 1 diabetic mice. A single dose (200 mg/kg) of STZ was ip injected into C57BL6 mice. Eight days post injection, as expected, high-dose STZ caused extremely severe type 1 diabetes with ad libitum glucose level (>600 mg/dL) exceeding the upper limit of the glucose meter. The mice were ip injected with ADISSP protein (50 nmole/kg) or vehicle at 0 hr and 24 h. After each injection, mice were fasted for 6 hours before glucose measurement so the glucose level in the vehicle group would fall below 600 mg/dL. […] We were not able to continue the experiment because the mice were not healthy due to the high dose of STZ. To account for this, a low dose (50 mg/kg) of STZ was injected daily from Day 1 to Day 5 to produce healthy, type 1 diabetes mice. From Day 13, glucose was measured at 7:30 am followed by ip injection of ADISSP protein (70 nmole/kg) or vehicle once a day at 8 am for two weeks. At Day 13, glucose was measured after 2 hour fasting, all other time points were measured at ad libitum state.
# [3] = system: ob/ob mice; type: in vivo
# Procedure: To evaluate longer-term effects of treatment with ADISSP, 12-week ob/ob mice (6 male and 8 female mice in control group and 8 male and 8 female mice in treatment group) were used. Glucose levels were measured at 7 am daily. Vehicle or ADISSP protein (62.6 nmole/kg per day) was ip injected once a day at 8 am for 30 days. […] In addition, after one-month treatment of ob/ob mice with ADISSP protein, bone density was examined by X-Ray. […] Instead, a slight increase was observed, as shown in the region in the box in FIG. 7G. Loss of bone density is associated with FGF21 and diabetes drug TZDs.
# [4] = system: ob/ob mice; assay: ob/ob mice, single dose then once every 48 hours; type: in vivo
# Procedure: The effects of injection of purified ADISSP protein were evaluated on hyperglycemia, hyperinsulinemia, and liver steatosis in ob/ob mice (6 male and 9 female mice in control group and 5 male and 10 female mice in treatment group), which were used as a type 2 diabetic mouse model. The mice were injected intraperitoneally with vehicle or a single dose of purified ADISSP protein (50 nmole/kg). Glucose was monitored for 46 hours. Note, no food was provided in the first 8 hours. […] The glucose-lowering effect of ADISSP protein was not due to any difference of food intake, as there was no food provided in the first 8 hours. 46 hours post the first injection, ob/ob mice were injected with ADISSP (50 nmole/kg) once every 48 hour at 8 am (arrow). Mice were fed ad libitum.
# [5] = system: DIO mice; type: in vivo; settings: 71 nmole/kg per day ip, one month
# Procedure: We next performed a one-month treatment of hyperglycemic DIO mice (n=19-20 DIO mice/group) with purified ADISSP protein. Glucose levels were measured every day at 7:30 am followed by daily intraperitoneal injection of ADISSP (71 nmole/kg per day). […] Hypertriglyceridemia (FIG. 9J) and high level of Aspartate aminotransferase (AST) (indicative of liver damage caused by fatty liver) (FIG. 9K) were normalized as well.
# [6] = system: GAN diet NASH mice; assay: Gubra Amylin NASH (GAN) diet mice: NASH and cardiac hypertrophy; type: in vivo, C57BL6J mice
# Text: To examine the potential effects of Adissp protein on NASH, we fed wild-type male C57BL6J mice with the Gubra Amylin NASH (GAN) diet (Research Diets, D09100310) for 32 weeks to induce a NASH phenotype resembling human NASH. We then treated these mice with Adissp (113 nmole/kg per day) or vehicle. […] At Day 16 of the treatment, a sub-group of mice were sacrificed and NASH phenotype was examined. […] Thus, treatment with Adissp protein rapidly resolved the NASH phenotype.
# The remaining mice were continuously treated with 63 nmole/kg per day Adissp protein or vehicle for 31 days.
# [7] = system: euglycemic mice; type: in vivo; settings: 70 nmole/kg ip, 3 hr after injection
# Procedure: (§3) To explore the mechanism of ADISSP action in vivo, 3-month-old male mice (n=4/group) with euglycemia were intraperitoneally (ip) injected with purified ADISSP protein (70 nmole/kg) at 0 hr. Glucose and insulin levels and Akt activation were measured 3 hr after injection.
# [8] = system: insulin receptor substrate 1 (IRS1); assay: IRS1 activation in serum-starved brown adipocytes; type: cell-based; settings: ADISSP 300 nM, 30 min
# Procedure: as §1
# [9] = system: tyrosine phosphorylation; assay: Tyrosine phosphorylation in serum-starved brown adipocytes; type: cell-based; settings: ADISSP 300 nM, 30 min
# Procedure: as §1
# [10] = system: Akt; assay: Akt activation in adipose tissue in vivo after single ip dose; set-up: species or system mice; settings: 70 nmole/kg ip, 3 hr after injection
# Procedure: as §3
# [11] = system: STZ-induced type 1 diabetic mice; assay: Low-dose streptozotocin (STZ)-induced type 1 diabetic mice; type: in vivo; settings: STZ 50 mg/kg daily Day 1 to Day 5
# Procedure: as §2
# [12] = system: DIO mice; assay: Two-week treatment of high fat-induced obese (DIO) mice; type: in vivo; settings: 65 nmole/kg ip once a day, 14 injections
# Procedure: In the experiment shown in FIGS. 7A-G, all daily glucose levels were measured 24-hr post ADISSP injection. A much stronger glucose reduction would have been observed if measured at earlier time points, e.g., at 6-hr or 12-hr following protein injection. […] Male mice (n=19 mice/group) were fed a high fat diet for 20 weeks to render them obese and hyperglycemia. Mice were then ip injected with ADISSP protein (65 nmole/kg) once a day at 8 am for a total of 14 injections. Glucose levels at ad libitum state were measured at 7:30 am, […]. Insulin levels and livers were examined.
# [13] = system: Glut4; assay: Glut4 trafficking to the plasma membrane in Myc-Glut4-GFP transfected adipocytes; type: cell-based; settings: adipocytes serum-starved overnight, treated 30 min; for Glut4 localization to the plasma membrane: Myc staining without permeabilization
# Procedure: To evaluate effects of ADISSP on Glut4 trafficking to the plasma membrane, adipocytes were transfected with a Myc-Glut4-GFP plasmid, in which Myc and GFP were fused to the extracellular and intracellular regions of Glut4, respectively. The Adipocytes were serum-starved overnight, and then treated with purified ADISSP protein or insulin for 30 min. The adipocytes were fixed without permeabilization, and stained with Myc antibody and DAPI. […] 95% of GFP-positive cells were also Myc-positive after either ADISSP or insulin treatment, while very few GFP-positive cells were Myc-positive in control samples.
# [14] = 62.6 nmole/kg per day ip, 30 days
# [15] = 113 nmole/kg per day, Day 16 of treatment
compound,measurement,setting,value
O=C1OC2(c3ccccc31)c1ccc(O)c(O)c1Oc1c2ccc(O)c1O [Gallein],blocking of Akt activation by ADISSP,[1],not blocked
CCOc1cn(-c2ccc(F)cc2C)nc1C(=O)Nc1ccc(Oc2ccnc3cc(OC)c(OC)cc23)c(F)c1 [LDC1267],blocking of Akt activation by ADISSP,[1],blocks
"ADISSP: recombinant adipose-secreted signaling protein with C-terminal His-tag, purified from medium of transfected Expi293F cells",polyuria,[2],improvement in polyuria
same,decrease of glucose levels,[2]; 6 hours fasted after each injection,41-48%
same,body weight gain,[3]; [14],reduced body weight gain
same,glucose tolerance,[3]; [14],improved glucose tolerance
same,insulin sensitivity,[3]; [14],improved
same,liver steatosis,[3]; [14],ameliorated liver steatosis
same,hyperglycemia (daily glucose levels),"[3]; 62.6 nmole/kg per day ip, 30 days, glucose measured 24-hr post injection",normalized hyperglycemia
same,bone density by X-Ray,"[3]; mouse, in vivo","did not see decreased bone density. Instead, a slight increase was observed"
same,duration of glucose-lowering effect after each subsequent injection,[4]; 50 nmole/kg once every 48 hour,at least 48 hours
same,hyperinsulinemia,[4]; 50 nmole/kg once every 48 hour,improvement in hyperinsulinemia
same,glucose lowered on average,"[4]; 50 nmole/kg once every 48 hour, fed ad libitum",83.5 mg/dL
same,liver steatosis,"[4]; 50 nmole/kg once every 48 hour, liver colour and histology",improved
same,hyperglycemia,[4]; injection once every 48 hours,sufficient to normalize hyperglycemia
same,onset of glucose lowering,[4]; post injection,two
same,duration of glucose-lowering effect of a single dose,[4]; single dose 50 nmole/kg ip,more than 20 hours
same,Aspartate aminotransferase (AST) level,[5],normalized
same,body weight,[5],decreased body weight
same,fat mass,[5],reduction of fat mass
same,fatty liver,[5],completely reversed fatty liver
same,glucose tolerance,[5],markedly improved
same,hyperglycemia (daily glucose levels),[5],completely normalized hyperglycemia
same,hypertriglyceridemia (serum triglycerides),[5],normalized
same,insulin sensitivity,[5],markedly improved
same,lean mass,[5],but not lean mass
same,liver weight,[5],normalized liver weight
same,surface body temperature,[5],higher surface body temperature
same,fibrosis (Sirius Red staining),[6]; [15],greatly alleviated
same,hepatomegaly (liver size and weight),[6]; [15],ameliorated
same,inflammation,[6]; [15],ameliorated
same,steatosis,[6]; [15],ameliorated
same,hyperglycemia (blood glucose),"[6]; GAN diet 32 weeks, 113 nmole/kg per day",normalized hyperglycemia
same,cardiac hypertrophy (heart weight and size),[6]; remaining mice continued at 63 nmole/kg per day for 31 days,resolved high fat diet-induced cardiac hypertrophy
same,insulin secretion,[7],did not stimulate insulin secretion
same,blood glucose level,[7]; 3-month-old male mice,lowers blood glucose level
same,activation of insulin receptor substrate 1 (IRS1),[8],did not activate
same,tyrosine phosphorylation,[9],induces a bulk of tyrosine phosphorylation
same,Akt activation,"[1]; serum-starved brown adipocytes, ADISSP 300 nM, 30 min",activates Akt independently of insulin receptor
same,"Akt activation in vivo (BAT, iWAT, eWAT)",[10],activated Akt in vivo
same,polyuria,[11]; ADISSP 70 nmole/kg ip once a day for two weeks,improved polyuria
same,blood glucose,[11]; ADISSP 70 nmole/kg ip once a day for two weeks from Day 13,markedly lowered blood glucose
same,fatty liver,[12],amelioration of fatty liver
same,hyperinsulinemia,[12],reduced hyperinsulinemia
same,liver weight,[12],reduction of liver weight
same,daily glucose levels,"[12]; ad libitum, 6 hr, 12 hr and 24 hr from injection",clear improvement in daily glucose levels
same,GFP-positive cells also Myc-positive,[13],95%
same,Glut4 localization to the plasma membrane,[13],induced Glut4 localization to the plasma membrane
insulin [reference compound],GFP-positive cells also Myc-positive,[13],95%
same,Glut4 localization to the plasma membrane,[13],induced Glut4 localization to the plasma membrane
CC[C@H](C)[C@H](NC(=O)CN)C(=O)NCC(=O)N[C@@H](C)C(=O)N[C@H](C(=O)N[C@@H](CC(C)C)C(=O)N[C@@H](CCCCN)C(=O)N[C@H](C(=O)N[C@@H](CC(C)C)C(=O)N[C@H](C(=O)N[C@H](C(=O)NCC(=O)N[C@@H](CC(C)C)C(=O)N1CCC[C@H]1C(=O)N[C@@H](C)C(=O)N[C@@H](CC(C)C)C(=O)N[C@H](C(=O)N[C@@H](CO)C(=O)N[C@@H](Cc1c[nH]c2ccccc12)C(=O)N[C@H](C(=O)N[C@@H](CCCCN)C(=O)N[C@@H](CCCNC(=N)N)C(=O)N[C@@H](CCCCN)C(=O)N[C@@H](CCCNC(=N)N)C(=O)N[C@@H](CCC(N)=O)C(=O)N[C@@H](CCC(N)=O)C(N)=O)[C@@H](C)CC)[C@@H](C)CC)[C@@H](C)O)[C@@H](C)O)C(C)C)C(C)C [Melittin],blocking of Akt activation by ADISSP,[1],not blocked
